Measurements reported in patent US10953015B2, “Use of adenosine receptor signaling to regulate P-gp function” (CORNELL UNIVERSITY, priority 2016, dated 2021).

Tested on: MMP9
Assay: MMP9 expression in HBMVEC (western blot, IFA)
Assay type: cell-based, human
Conditions: western blot and IFA
Excerpt: FIG. 8A is a schematic diagram of the experimental procedure for analysis of Lexiscan®'s effect on P-gp solubility and excretion in primary brain endothelial cells (“HBMVEC”). FIGS. 8B-8C are western blots and graphs summarizing the experimental result of each western blot. FIGS. 8B-8C show the analysis of P-gp expression of HBMVEC upon activation with Lexiscan® at different time points after lysis with RIPA buffer (FIG. 8B) or CSK buffer to measure P-gp levels in the cytoskeletal fraction (FIG. 8C). Band intensity was normalized to GAPDH and graphed. […] Band intensity was normalized using GAPDH and plotted. FIG. 8E is a western blot of secreted P-gp in HBMVEC upon activation with Lexiscan® in absence or presence of an MMP9 inhibitor: both short and long exposures of western blot from MMP9 inhibitor-treated samples are shown. Band intensity was plotted as a graph. […] FIG. 8H is a graph summarizing the intensity of fluorescence of MMP9 from FIG. 8G. Fluorescent intensity of MMP9 was quantified and plotted as graph (n=20). **P<0.01 (2-tailed Student's t test, 1 representative result of 3 different experiments).
HCMEC-D3 and HBMVEC cells were plated in 12-well plates and were grown until they reached 100% confluency. […] The intensity of band was analyzed with densitometric analysis and plotted as a graph for analysis of time-course effect of AR signaling on P-gp expression.

Question: `CNC(=O)c1cnn(-c2nc(N)c3ncn([C@@H]4O[C@H](CO)[C@@H](O)[C@H]4O)c3n2)c1` [Lexiscan®, 1-[6-amino-9-[(2R,3R,4S,5R)-3,4-dihydroxy-5-(hydroxymethyl)oxolan-2-yl]purin-2-yl]-N-methylpyrazole-4-carboxamide] was tested. Which MMP9 expression did it give?
Answer: Increased expression of MMP9 was observed beginning at 5 minutes
